Assay: method code SF, from DOI: 10.1039/p29920001643
For `Cc1nonc1S(=O)c1ccccc1` (stereo unspecified), the logP was 1.76. `Cc1no[n+]([O-])c1Sc1ccccc1` gave a logP of 2.74. `CCCc1nonc1C` gave a logP of 1.71. In the case of `[O-][n+]1onc(Cc2ccccc2)c1Cc1ccccc1`, the logP is reported as 3.65. Compound `CCS(=O)(=O)c1no[n+]([O-])c1C` has a logP of 0.65. With `c1ccc(-c2nonc2-c2ccccc2)cc1` the logP was 3.83. `Cc1nonc1C` gave a logP of 0.71. `Cc1no[n+]([O-])c1-c1ccccc1` showed a logP of 2.16. In the case of `O=[N+]([O-])c1nonc1-c1ccccc1`, the logP is reported as 2.63. For `[O-][n+]1onc(Cl)c1-c1ccccc1`, the logP was 2.7. Work on `[O-][n+]1onc(-c2ccccc2)c1CO` yielded a logP of 1.77. With `Nc1c(-c2ccccc2)no[n+]1[O-]` the logP was 1.42. In the case of `Cc1nsnc1C`, the logP is reported as 1.28. For `Nc1nonc1NC(=O)c1ccccc1`, the logP was 1.41. In the case of `Cc1c(N)no[n+]1[O-]`, the logP is reported as -0.17. For `Cc1c(Cc2ccccc2)no[n+]1[O-]`, the logP was 2.08. Work on `COC(=O)c1nonc1C` yielded a logP of 0.94. Compound `Cc1no[n+]([O-])c1C=O` has a logP of 1.29. `O=Cc1no[n+]([O-])c1-c1ccccc1` showed a logP of 2.61. Work on `Cc1c(Cl)no[n+]1[O-]` yielded a logP of 1.02. Compound `Cc1nonc1C(N)=O` has a logP of 0.31. `Cc1nonc1N` gave a logP of 0.09. With `Nc1nonc1-c1ccccc1` the logP was 1.81. `Cc1c(C=O)no[n+]1[O-]` showed a logP of 1.02. Work on `Cc1no[n+]([O-])c1Cc1ccccc1` yielded a logP of 2.22. Work on `OCc1nonc1-c1ccccc1` yielded a logP of 1.92. In the case of `CC(=O)Nc1nonc1N`, the logP is reported as -0.23. Work on `Cc1nonc1Sc1ccccc1` yielded a logP of 2.92. For `Cc1c(S(=O)(=O)c2ccccc2)no[n+]1[O-]`, the logP was 2.03. For `Cc1nonc1Cc1ccc([N+](=O)[O-])cc1`, the logP was 2.21. For `CC(=O)c1c(C)no[n+]1[O-]`, the logP was 0.8. With `CNC(=O)c1nonc1C` the logP was 0.56. `[O-][n+]1onc2ccccc21` gave a logP of 1.43. For `Cc1no[n+]([O-])c1C`, the logP was 0.23. In the case of `Nc1nonc1N`, the logP is reported as -0.49. For `Cc1no[n+]([O-])c1C(N)=O`, the logP was 0.36. In the case of `Clc1nonc1-c1ccccc1`, the logP is reported as 3.2. Work on `Cc1c(S(=O)c2ccccc2)no[n+]1[O-]` (stereo unspecified) yielded a logP of 1.5. In the case of `c1ccc2nonc2c1`, the logP is reported as 1.69. Compound `Cc1nonc1-c1ccccc1` has a logP of 2.59. Compound `COC(=O)c1no[n+]([O-])c1C` has a logP of 0.56. With `CCNc1nonc1N` the logP was 0.51. Work on `O=Cc1c(-c2ccccc2)no[n+]1[O-]` yielded a logP of 2.92. Work on `Cc1no[n+]([O-])c1N` yielded a logP of -0.32. Compound `COC(=O)Nc1nonc1C` has a logP of 0.42. With `Cc1nonc1[N+](=O)[O-]` the logP was 0.97. In the case of `c1ccc2nsnc2c1`, the logP is reported as 1.98. With `Cc1no[n+]([O-])c1Cl` the logP was 0.9. For `Cc1c(-c2ccccc2)no[n+]1[O-]`, the logP was 2.17. For `CC(=O)c1no[n+]([O-])c1C`, the logP was 0.98. In the case of `COC(=O)c1c(C)no[n+]1[O-]`, the logP is reported as 0.69. For `[O-][n+]1onc(-c2ccccc2)c1-c1ccccc1`, the logP was 3.64. `CCc1nonc1C` showed a logP of 1.18. `Cc1nonc1S(=O)(=O)c1ccccc1` showed a logP of 2.36. `CC(=O)Nc1nonc1C` showed a logP of 0.17. With `CNC(=O)Nc1nonc1C` the logP was 0.3. `Cc1c(C(N)=O)no[n+]1[O-]` showed a logP of 0.03. In the case of `Cc1no[n+]([O-])c1S(=O)c1ccccc1` (stereo unspecified), the logP is reported as 1.75. Work on `Nc1no[n+]([O-])c1-c1ccccc1` yielded a logP of 1.47. Work on `[O-][n+]1onc(CO)c1-c1ccccc1` yielded a logP of 1.64. `c1cnon1` gave a logP of 0.16.
